# Legend:
# [1] = test system: TEAD reporter gene activity; test: TEAD reporter gene assay (MCF7 TEAD reporter cell line); assay type: cell-based; conditions: Homo sapiens; TEAD luciferase reporter in MCF7 cells, 24 hours; read-out: IC50 TEAD RGA (converted)
# Description: A TEAD reporter cell line was purchased from BPS Bioscience (cat. no. 60618). It contains the firefly luciferase gene under control of TEAD responsive elements stably integrated into the human breast cancer MCF7 cells. In proliferating cells, a basal level of unphosphorylated YAP/TAZ resides in the nucleus and drives the TEAD-dependent expression of the luciferase reporter. The cells were cultivated as recommended by the supplier. Inhibition of TEAD reporter gene activity by experimental compounds was measured using white, clear-bottom, 96 well cell culture plates (Greiner Bio-One, cat. no. 655098). The cells were seeded at a density of 20,000 cells per well in 100 μL growth medium and the plates were incubated overnight at 37° C. with 5% CO2 prior to treatment. Experimental compounds were serially diluted in DMSO to 200× the desired final concentrations. 0.5 μL aliquots of DMSO or the test samples were then mixed into the wells and the cells were further incubated for 24 hours. Luminescence was then measured on a Synergy 4 reader (BioTek) using the ONE-Glo Luciferase Assay System (Promega, cat. no. E6120) according to the manufacturer's instructions. Relative inhibition values were calculated by normalizing the raw data using DMSO-treated cells (0% inhibition) and wells devoid of cells (100% inhibition). IC50 values were calculated by fitting concentration-response data to a sigmoidal 4-parameter logistic model.
# [2] = biological target: T1, human TEAD2 (amino acids 217-447) (Homo sapiens, UniProt Q15562); test: Thermal shift assay (TSA); assay type: binding; conditions: 3 μM recombinant TEAD2, compound 7 μM, shift vs DMSO control
# T1 construct: human TEAD2 (amino acids 217-447); His-tag (N); purchased Proteros biostructures PR-0365; host or cells: E. coli
# T1 sequence (Q15562 217-447): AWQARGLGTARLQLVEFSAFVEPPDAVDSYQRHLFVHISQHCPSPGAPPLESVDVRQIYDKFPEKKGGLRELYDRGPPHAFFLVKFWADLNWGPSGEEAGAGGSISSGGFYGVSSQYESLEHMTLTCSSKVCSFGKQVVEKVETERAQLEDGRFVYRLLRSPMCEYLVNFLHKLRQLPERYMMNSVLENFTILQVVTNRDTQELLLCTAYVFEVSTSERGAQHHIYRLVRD
# Protocol: The thermal shift assay (TSA) was utilized to characterize target engagement in vitro based on ligand-dependent thermal stabilization of the protein. N-terminally His-tagged human TEAD2 (amino acids 217-447) expressed and purified from E. coli was purchased from Proteros biostructures (cat no. PR-0365). The melting reactions were performed in white, 96 well qPCR plates (Roche Diagnostics, cat. no. 04 729 692 001) in 20 mM HEPES pH 7, 100 mM NaCl in the presence of 4×SYPRO orange (Sigma, cat. no. S5692). Each well contained 3 μM recombinant TEAD2 and either DMSO (control) or experimental compounds at a final concentration of 7 μM. The total volume was 20 μL and the final DMSO concentration was 1%. The plate was sealed and analyzed in a LightCycler 480 II (Roche Diagnostics) by continuously reading the fluorescence using the 465-580 nm filter set while heating from 25° C. to 95° C. using a linear gradient of 1° C./min. Melting temperatures were determined by numerical differentiation using the LightCycler Thermal Shift Analysis software (Roche Diagnostics). The shifts in melting temperature caused by experimental compounds compared to the control are expressed as ΔTm (Table 2).
Structure (SMILES),IC50 [1],ΔTm at 7 µM [2]
"Nc1cnc(Nc2ccc(C(F)(F)F)cc2)c(-c2noc(=O)[nH]2)n1 [Example 4, 3-[6-amino-3-[4-(trifluoromethyl)anilino]pyrazin-2-yl]-4H-1,2,4-oxadiazol-5-one]",85 nM,2 °C
"CC(C)c1ccc(Nc2nccnc2-c2noc(=O)[nH]2)cc1 [Example 16, 3-[3-(4-isopropylanilino)pyrazin-2-yl]-4H-1,2,4-oxadiazol-5-one]",552 nM,11.1 °C
"O=c1[nH]c(-c2nccnc2Nc2ccc(OC(F)(F)F)cc2Cl)no1 [Example 8, 3-[3-[2-chloro-4-(trifluoromethoxy)anilino]pyrazin-2-yl]-4H-1,2,4-oxadiazol-5-one]",1800 nM,7.5 °C
"COc1cnc(Nc2ccc(C(F)(F)F)cc2)c(-c2noc(=O)[nH]2)n1 [Example 5, 3-[6-methoxy-3-[4-(trifluoromethyl)anilino]pyrazin-2-yl]-4H-1,2,4-oxadiazol-5-one]",117 nM,4.5 °C
"O=c1[nH]c(-c2c(Nc3ccc(C(F)(F)F)cc3)ncc3c2CCC3)no1 [Example 49, 3-[3-[4-(trifluoromethyl)anilino]-6,7-dihydro-5H-cyclopenta[c]pyridin-4-yl]-4H-1,2,4-oxadiazol-5-one]",649 nM,0.6 °C
"O=c1[nH]c(-c2nccnc2Nc2ccc(Cl)c(C(F)(F)F)c2)no1 [Example 30, 3-[3-[4-chloro-3-(trifluoromethyl)anilino]pyrazin-2-yl]-4H-1,2,4-oxadiazol-5-one]",4910 nM,5.3 °C
"O=c1[nH]c(-c2c(OCCNCCO)ccnc2Nc2ccc(C(F)(F)F)cc2)no1 [Example 54, 3-[4-[2-(2-hydroxyethylamino)ethoxy]-2-[4-(trifluoromethyl)anilino]-3-pyridyl]-4H-1,2,4-oxadiazol-5-one]",357 nM,0.9 °C
"O=c1[nH]c(-c2c(OC3CCOCC3)ccnc2Nc2ccc(C(F)(F)F)cc2)no1 [Example 64, 3-[4-tetrahydropyran-4-yloxy-2-[4-(trifluoromethyl)anilino]-3-pyridyl]-4H-1,2,4-oxadiazol-5-one]",268 nM,4.2 °C
"CC1(COc2ccnc(Nc3ccc(C(F)(F)F)cc3)c2-c2noc(=O)[nH]2)CC1 [Example 63, 3-[4-[(1-methylcyclopropyl)methoxy]-2-[4-(trifluoromethyl)anilino]-3-pyridyl]-4H-1,2,4-oxadiazol-5-one]",1550 nM,3.4 °C
"O=c1[nH]c(-c2cccnc2Nc2ccc(C(F)(F)F)cc2)no1 [Example 1, 3-[2-[4-(trifluoromethyl)anilino]-3-pyridyl]-4H-1,2,4-oxadiazol-5-one]",39 nM,9.9 °C
"NCCOc1ccnc(Nc2ccc(C(F)(F)F)cc2)c1-c1noc(=O)[nH]1 [Example 55, 3-[4-(2-aminoethoxy)-2-[4-(trifluoromethyl)anilino]-3-pyridyl]-4H-1,2,4-oxadiazol-5-one]",281 nM,1 °C
"O=c1[nH]c(-c2c(OC3CCNCC3)ccnc2Nc2ccc(C(F)(F)F)cc2)no1 [Example 67, 3-[4-(4-piperidyloxy)-2-[4-(trifluoromethyl)anilino]-3-pyridyl]-4H-1,2,4-oxadiazol-5-one]",10700 nM,7.1 °C
"Cc1cnc(-c2noc(=O)[nH]2)c(Nc2ccc(C(F)(F)F)cc2)n1 [Example 31, 3-[5-methyl-3-[4-(trifluoromethyl)anilino]pyrazin-2-yl]-4H-1,2,4-oxadiazol-5-one]",35 nM,10.5 °C
"CC(=O)Nc1cnc(Nc2ccc(C(F)(F)F)cc2)c(-c2noc(=O)[nH]2)n1 [Example 35, N-[6-(5-oxo-4H-1,2,4-oxadiazol-3-yl)-5-[4-(trifluoromethyl)anilino]pyrazin-2-yl]acetamide]",3830 nM,2.5 °C
"O=C(O)COc1ccnc(Nc2ccc(C(F)(F)F)cc2)c1-c1noc(=O)[nH]1 [Example 58, 2-[[3-(5-oxo-4H-1,2,4-oxadiazol-3-yl)-2-[4-(trifluoromethyl)anilino]-4-pyridyl]oxy]acetic acid]",13700 nM,3 °C
"CS(=O)(=O)NCCOc1ccnc(Nc2ccc(C(F)(F)F)cc2)c1-c1noc(=O)[nH]1 [Example 57, N-[2-[[3-(5-oxo-4H-1,2,4-oxadiazol-3-yl)-2-[4-(trifluoromethyl)anilino]-4-pyridyl]oxy]ethyl]methanesulfonamide]",388 nM,4.1 °C

Structure (SMILES),IC50 [1],ΔTm at 7 µM [2]
"Cc1ccnc(Nc2ccc(C(F)(F)F)cc2)c1-c1noc(=O)[nH]1 [Example 28, 3-[4-methyl-2-[4-(trifluoromethyl)anilino]-3-pyridyl]-4H-1,2,4-oxadiazol-5-one]",557 nM,6.1 °C
"O=c1[nH]c(-c2cc(Cl)cnc2Nc2ccc(C(F)(F)F)cc2)no1 [Example 44, 3-[5-chloro-2-[4-(trifluoromethyl)anilino]-3-pyridyl]-4H-1,2,4-oxadiazol-5-one]",225 nM,11.6 °C
"NCCc1cnc(Nc2ccc(C(F)(F)F)cc2)c(-c2noc(=O)[nH]2)n1 [Example 7, 3-[6-(2-aminoethyl)-3-[4-(trifluoromethyl)anilino]pyrazin-2-yl]-4H-1,2,4-oxadiazol-5-one]",2840 nM,0.5 °C
"O=c1[nH]c(-c2nccnc2Nc2ccc(Cl)cc2)no1 [Example 43, 3-[3-(4-chloroanilino)pyrazin-2-yl]-4H-1,2,4-oxadiazol-5-one]",930 nM,6.6 °C
"O=c1[nH]c(-c2nccnc2Nc2ccc(OC(F)(F)F)cc2)no1 [Example 3, 3-[3-[4-(trifluoromethoxy)anilino]pyrazin-2-yl]-4H-1,2,4-oxadiazol-5-one]",90 nM,11.5 °C
"CC(=O)NCCOc1ccnc(Nc2ccc(C(F)(F)F)cc2)c1-c1noc(=O)[nH]1 [Example 56, N-[2-[[3-(5-oxo-4H-1,2,4-oxadiazol-3-yl)-2-[4-(trifluoromethyl)anilino]-4-pyridyl]oxy]ethyl]acetamide]",767 nM,4.3 °C
"O=c1[nH]c(-c2nccnc2Nc2ccc(-c3ccccc3)cc2)no1 [Example 29, 3-[3-(4-phenylanilino)pyrazin-2-yl]-4H-1,2,4-oxadiazol-5-one]",503 nM,7.3 °C
"O=c1[nH]c(-c2nccnc2Nc2ccc(C(F)(F)F)c(Cl)c2)no1 [Example 20, 3-[3-[3-chloro-4-(trifluoromethyl)anilino]pyrazin-2-yl]-4H-1,2,4-oxadiazol-5-one]",236 nM,10.6 °C
"O=c1[nH]c(-c2nccnc2Nc2ccc(C(F)(F)F)nc2)no1 [Example 24, 3-[3-[[6-(trifluoromethyl)-3-pyridyl]amino]pyrazin-2-yl]-4H-1,2,4-oxadiazol-5-one]",340 nM,3.4 °C
"COc1cc(C(F)(F)F)ccc1Nc1nccnc1-c1noc(=O)[nH]1 [Example 21, 3-[3-[2-methoxy-4-(trifluoromethyl)anilino]pyrazin-2-yl]-4H-1,2,4-oxadiazol-5-one]",102 nM,2.1 °C
"O=c1[nH]c(-c2c(OCCN3CCOCC3)ccnc2Nc2ccc(C(F)(F)F)cc2)no1 [Example 60, 3-[4-(2-morpholinoethoxy)-2-[4-(trifluoromethyl)anilino]-3-pyridyl]-4H-1,2,4-oxadiazol-5-one]",465 nM,1.3 °C
"O=c1[nH]c(-c2nccnc2Nc2ccc(S(F)(F)(F)(F)F)cc2)no1 [Example 50, 3-[3-[4-(pentafluoro-λ6-sulfanyl)anilino]pyrazin-2-yl]-4H-1,2,4-oxadiazol-5-one]",37 nM,12.2 °C
"O=c1[nH]c(-c2c(OCCO)ccnc2Nc2ccc(Cl)cc2)no1 [Example 48, 3-[2-(4-chloroanilino)-4-(2-hydroxyethoxy)-3-pyridyl]-4H-1,2,4-oxadiazol-5-one]",507 nM,1.9 °C
O=c1[nH]c(-c2nccnc2Nc2ccc(C(F)(F)F)cc2F)no1 [Example 25],117 nM,9.6 °C
"CC(C)(C)Oc1ccnc(Nc2ccc(C(F)(F)F)cc2)c1-c1noc(=O)[nH]1 [Example 53, 3-[4-tert-butoxy-2-[4-(trifluoromethyl)anilino]-3-pyridyl]-4H-1,2,4-oxadiazol-5-one]",815 nM,3.7 °C

# — patent US20220402900A1, “1,2,4-OXADIAZOL-5-ONE DERIVATIVES FOR THE TREATMENT OF CANCER” (Basilea Pharmaceutica International AG, priority 2019, published 2022)
